Test results taken from paper PMC12215950 (Chemical Science, 2025).

Target: T1, mitochondrial branched-chain aminotransferase (mBCAT2) (Mus musculus, UniProt O35855)
T1 sequence (O35855 28-393): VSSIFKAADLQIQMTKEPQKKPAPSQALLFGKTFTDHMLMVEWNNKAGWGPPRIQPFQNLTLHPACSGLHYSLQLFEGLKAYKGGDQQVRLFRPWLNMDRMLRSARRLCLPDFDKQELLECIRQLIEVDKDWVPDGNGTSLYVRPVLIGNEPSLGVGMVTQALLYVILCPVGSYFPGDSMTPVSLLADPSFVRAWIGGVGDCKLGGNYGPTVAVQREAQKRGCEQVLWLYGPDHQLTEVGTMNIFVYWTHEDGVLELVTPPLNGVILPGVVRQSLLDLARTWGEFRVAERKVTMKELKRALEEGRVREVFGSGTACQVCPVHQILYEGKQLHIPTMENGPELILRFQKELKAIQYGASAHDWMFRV
Experiment: LC-MS transamination assay with Michaelis–Menten kinetics
Type: biochemical

C=C(CC(=O)O)C(=O)O [ITA, itaconate]
Ki: 15.3 mM
